From patent publication US20110039921A1 (priority 2007, published 2011)
Where two headings read alike, the source gives them in different places.

Assays:
Lewis lung cancer = assay: Inhibitory activity on mice Lewis lung cancer
[1] = tested on: A549: the human lung adenocarcinoma cell strain; assay: cells; format: cell-based; details: Homo sapiens
Experimental: (§1) Experiment 1. Cytotoxicity Screening Assay at Cell Level of Compounds of this Invention
(§2) Tumor cells at log phase were incubated on 96-well plates at a density of 1˜1.2×10^4 cells/ml, 100 μl/well. 24 h later, treatment cells were exposed to the tested agents at different concentrations. Each tested agents had 4˜5 doses, and each dose had at least 3 parallel wells. Control cells were exposed to solvents in the same volume with treat agents. Cells were cultured at 37° C. in a cell incubator with 5% CO2 and 95% air atmosphere. After 4 days of culture, the incubation medium was removed, then 200 μl 0.2% MTT (prepared by RPMI 1640) was added to each well and the plates were incubated at 37° C. for 4 hours. The supernatant was discarded and dissolved the resulting formazen product with 200 μl DMSO in each well. The absorbance at a reference wavelength of 450 nm and a test wavelength of 570 nm was read on a microplate reader after tenderly shaking. Calculated drug inhibitory rate using the following equation and IC50, taking solvent exposure tumor cells as control cells.

[2] = tested on: KB: the human oral epithelium cancer cell strain; assay: cells; format: cell-based; details: Homo sapiens, KB
Experimental: as §1, §2

[3] = tested on: human mammary adenocarcinoma cell strain MCF-7; assay: MTT cytotoxicity assay, MCF-7 cells; format: cell-based; details: Homo sapiens, MCF7, Table 2, read-out: IC50 (mol/L) MCF-7
Experimental: as §1, §2

[4] = tested on: human ovarian cancer A2780-nude mice-xenograft tumor; assay: Growth inhibition on A2780-nude mice-xenograft tumor
From the text: (§3) Genera: BALB/c (nu-nu) nude mice
(§4) After one-week accommodation, animals were given subcutaneous implantation of the human lung adenocarcinoma A549 or the human ovarian cancer A2780 or the human gastric carcinoma BGC-823 cells. Animals were grouped randomly (d0) when the tumors reached 100-300 mm^3. […] Animal weights and tumor measurements were taken every […] and recorded. At the end of the study (d30 or d35), nude mice were euthanized and weighed. After the animals were sacrificed, tumor tissue was cut and weighed. Tumor volume was determined using the following equation: […]

[5] = tested on: human gastric carcinoma BGC-823 nude mice-xenograft tumor; assay: Growth inhibition on BGC-823-nude mice-xenograft tumor
From the text: as §3, §4

HCT-8 = assay: MTT cytotoxicity assay, HCT-8 cells; format: cell-based; details: Homo sapiens, HCT-8, Table 2, read-out: IC50 (mol/L) HCT-8
Experimental: as §1, §2

[6] = tested on: A549/Taxol: the taxol-resistant substrain of A549; assay: cells; format: cell-based, human; details: Homo sapiens
Experimental: as §1, §2

[7] = tested on: KB/V: the vincristine-resistant substrain of KB; assay: cells; format: cell-based, human; details: Homo sapiens, KBV, 96 h; Table 1; MTT, 4 days of culture; read-out: IC50(M) KB/V
Experimental: as §1, §2

[8] = tested on: human lung adenocarcinoma A549-nude mice-xenograft tumor; assay: Growth inhibition on A549-nude mice-xenograft tumor
From the text: as §3, §4

BGC-823 = assay: MTT cytotoxicity assay, BGC-823 cells; format: cell-based, human; details: Homo sapiens, BGC-823, Table 2, read-out: IC50 (mol/L) BGC-823
Experimental: as §1, §2

BGC-803 = assay: MTT cytotoxicity assay, BGC-803 cells; format: cell-based; details: BGC803, Table 2, read-out: IC50 (mol/L) BGC-803
Experimental: as §1, §2

[9] = tested on: MCF-7/D: adriamycin-resistant subline of the human mammary adenocarcinoma cell strain MCF-7; assay: MTT cytotoxicity assay, MCF-7/D cells; format: cell-based; details: Homo sapiens, MCF7, Table 2, read-out: IC50 (mol/L) MCF-7/D
Experimental: as §1, §2

Question: Which results are given for `CC(=O)O[C@H]1C(=O)[C@@]2(C)[C@H]([C@H](OC(=O)c3ccccc3)[C@]3(O)C[C@H](OC(=O)[C@H](O)[C@@H](NC(=O)c4ccccc4)c4ccccc4)C(C)=C1C3(C)C)[C@]1(OC(C)=O)CO[C@@H]1C[C@@H]2O` [taxol, paclitaxel, reference compound]?
Answer: Inhibition (%) (Lewis lung cancer; 10 × 6 mg/kg): 31.64%; Tumor weight (g) Average (Lewis lung cancer; 10 × 6 mg/kg): 1.96 g; Body weight (g) end (Lewis lung cancer; 10 × 6 mg/kg, end): 19.4 g; Body weight (g) initial (Lewis lung cancer; 10 × 6 mg/kg, initial): 19.7 g; inhibition of tumor growth, conclusion in words (Lewis lung cancer; Lewis lung cancer, comparison with taxol): can inhibit the growth; IC50 ([1]; A549, 96 h, Table 1, MTT, 4 days of culture, read-out: IC50(M) A549): 2.32e-07 M; IC50 ([1]; A549, Table 2, MTT assay, read-out: IC50 (mol/L) A549): 5.2e-09 M; IC50 ([2]; 96 h, Table 1, MTT, 4 days of culture, read-out: IC50(M) KB): 8.66e-09 M; IC50 ([2]; Table 2, MTT assay, read-out: IC50 (mol/L) KB): 1.8e-09 M; IC50 [3]: 0.41 nM; RTV ([4]; 30 × 4 mg/kg i.p.): 4.4; T/C (%) ([4]; 30 × 4 mg/kg i.p.): 45.4%; Tv x ± SD d0 ([4]; 30 × 4 mg/kg i.p., d0 (first administration)): 137.9 ± 21.0; Tv x ± SD dn ([4]; 30 × 4 mg/kg i.p., dn: 30 days after the first administration): 604.8 ± 525.0; Body weight (g) end ([4]; 30 × 4 mg/kg i.p., end): 23.3 g; Body weight (g) initial ([4]; 30 × 4 mg/kg i.p., initial): 22.7 g; inhibition of tumor growth, conclusion in words ([4]; A2780 nude mice-xenograft tumor, comparison with taxol): can inhibit the growth; RTV ([5]; 30 × 3 mg/kg i.p.): 0.66; T/C (%) ([5]; 30 × 3 mg/kg i.p.): 2.41%; Tv x ± SD d0 ([5]; 30 × 3 mg/kg i.p., d0): 98.8 ± 47.35; Tv x ± SD dn ([5]; 30 × 3 mg/kg i.p., dn 30 days after the first administration): 104.9 ± 144.9; Body weight (g) end ([5]; 30 × 3 mg/kg i.p., end): 23.9 g; Body weight (g) initial ([5]; 30 × 3 mg/kg i.p., initial): 25.2 g; inhibition of tumor growth, conclusion in words ([5]; BGC-823 nude mice-xenograft tumor, comparison with taxol): can inhibit the growth; IC50 (HCT-8): 0.73 nM; IC50 ([6]; A549/Taxol, 96 h, read-out: IC50(M) A549/Taxol, Table 1, MTT, 4 days of culture): > 1e-06 M; IC50 ([6]; A549, Table 2, MTT assay, read-out: IC50 (mol/L) A549/T): 2.6e-08 M; IC50 [7]: 9.59e-07 M; RTV ([8]; 30 × 3 mg/kg): 4.6; T/C (%) ([8]; 30 × 3 mg/kg): 38.9%; Body weight (g) end ([8]; 30 × 3 mg/kg, end): 24.3 g; Tv x ± SD end ([8]; 30 × 3 mg/kg, end): 2152 ± 474; Body weight (g) initial ([8]; 30 × 3 mg/kg, initial): 22.0 g; inhibition of tumor growth, conclusion in words ([8]; A549 nude mice-xenograft tumor, comparison with taxol): can inhibit the growth; IC50 (BGC-823): 6.3 nM; IC50 (BGC-803): 2.5 nM; IC50 [9]: 330 nM
